The record followed here is US20220339178A1, “COMPOSITIONS AND METHODS FOR COGNITIVE PROTECTION OF POLLINATORS AGAINST PESTICIDES” (priority 2019, published 2022).

Data set [1] relates to Honeybees (Apis mellifera scutellata). Briefly: Classical conditioning of the proboscis extension response (PER): learning, 24 h memory retention, latency; flavonoids vs imidacloprid. The data set is classed as in vivo. The following applies: for memory retention, proportion difference relative to Control bees (Adjusted Wald test): conditioned PER after 24 h; for latency of response during learning acquisition relative to Control bees / learning scores relative to Control bees: honey bees; for learning scores relative to Control bees: 8 trials, score 0-7, quercetin 6.6 mM or rutin 1 mM once a day for three days, imidacloprid 1.16 nM 20 μL 1.5 h before training. The method, then:
Honeybees (Apis mellifera scutellata) were captured from established hives at the Apiary of the Pontificia Universidad Javeriana (Bogota, Colombia). Foragers were collected while leaving to forage between 8:00 am and 10:00 am (Matsumoto et al., J Neurosci Methods. 211(1):159-67. 2012). Bees were maintained in individual plastic chambers under laboratory conditions (photoperiod followed seasonal pattern; relative humidity: 63%; temperature: 18° C.). Food was provided once a day in a volume of 20 μL and varied in composition according to experimental treatments.
Control (2M sugar water): fed once a day (20 μL) for three consecutive days;
Quercetin (6.6 mM quercetin (Sigma-Aldrich: Q4951)-sucrose-water with DMSO 1% (Sigma-Aldrich: D8418): fed once a day for three days;
Rutin (1 mM rutin (Sigma-Aldrich R5143)-sucrose-water with DMSO 1%: fed once a day for three days;
Imidacloprid (1.16 nM Imidacloprid (Bayer)-sucrose-water: fed as a single dose (20 μL) 1.5 h before training;
Quercetin-Imidacloprid: bees received the quercetin treatment (see above) and were fed Imidacloprid 1.5 h before training; and
Rutin-Imidacloprid: bees received the rutin treatment (see above) and were fed Imidacloprid 1.5 h before training.
Bees were trained using classical conditioning of the proboscis extension response (PER), a broadly used method to study learning and memory in bees. Briefly, bees received a soft current of clean air for 15 seconds to allow bees to accommodate. Then a soft current of 1-hexanol (Sigma-Aldrich: 471402) was injected for 10 seconds. Six seconds after injection of 1-hexanol, one of the antennae was stimulated with sucrose water (50% w/w), which leads to the reflexive extension of the proboscis, and the bee was allowed to drink for 4 seconds. Thus, the reward and the stimulus overlapped for four seconds. This sequence, recognized as a training trial, was repeated eight times. Time was determined using a metronome (2 Hz). Memory retention was tested 24 hours after the eight training trials. […] 12 bees were trained each session. Training was conducted by an experimenter blind to treatment.
Learning was assessed from the total number of conditioned responses across the eight trials. Thus, each bee received a learning score between 0-7 (by definition, bees cannot show a learned response at the first trial). After 24 h, memory retention was assessed as the response to the presentation of 1-hexanol without a sucrose reward. Latency of response was quantified as the time between the onset of 1-hexanol stimulation and the onset of a response that led to a full extension of proboscis. Only bees being responsive to sucrose water across all training trials and the memory retention test were considered for analyses. Learning scores were compared across treatments using a Mann-Whitney test as data were not normally distributed (Shapiro-Wilk W test for the hypothesis that the data is from a Normal distribution: P<0.05 for all treatments). Comparisons of the learning score of bees across all treatments relative to Control bees were conducted using the Steel method adjusted as one or two-tailed tests. Additional post hoc comparisons were performed between Imid and Quer+Imid bees and between Imid and Rut+Imid bees. Memory retention was compared across groups using an overall Chi-Square test and independent tests for planned comparisons were performed using adjusted Wald tests for proportions. In all cases error due to multiple comparisons was controlled using the False Discovery Rate one stage method and adjusted p-values (q-values) are presented (Benjamini & Hochberg, Journal of the Royal Statistical Society. Series B (Methodological), 57(1):289-300. 1995; Pike, N., Methods in Ecology and Evolution, 2(3):278-282. 2011). All analyses were conducted using JMP v.14.0 (SAS Institute Inc). […]

A further data set has as its system Drosophila melanogaster. Briefly: Motor activity (negative geotropic response) test in flies: rutin vs imidacloprid. In kind it is in vivo. The procedure:
Standard methods were relied on to test motor activity and motor impairments in Drosophila melanogaster (Jimenez-Del-Rio et al. 2010. Neurochem Res 35:227-238). The method relies on the negative geotropic response (i.e. preference to walk up when standing on a wall) of insects. Four-day-old (post eclosion) D. melanogaster females were randomly assigned to one of four treatments: Control (fed on 5% sugar-water), Rutin 0.1 (fed on a solution 0.1 μM rutin in 5% sugar-water), Rutin 1 (fed on a solution 1 μM rutin in 5% sugar-water), Rutin 10 (fed on a solution 10 uM rutin in 5% sugar-water). After three days flies from each group were randomly assigned to one of two treatments: 5% sugar-water or 0.1 μM imid in 5% sugar-water. Thus, flies were in one of eight treatments: Control, Imid, Rut 0.1, Rut 0.1+Imid, Rut 1, Rut 1+Imid, Rut 10, Rut 10+Imid. Flies were exposed to their specific treatment for 22 h.
Following standard methods, flies were transferred to a clean vial and a threshold of 5 cm from the bottom was set on the vial. The bottom of the vial was knocked on the table to assure all flies were moved to the bottom. The number of flies that crossed the threshold within 6 seconds were counted. Data were analyzed using a Chi-square with specific predictions (one-tail tests) for planned comparisons. Error associated with multiple comparisons was corrected using the False Discovery Rate-method (two stage sharpen method).

As for `O=[N+]([O-])NC1=NCCN1Cc1ccc(Cl)nc1` [Imidacloprid], in data set [1] (24 h retention), the “odds of remembering for Control bees relative to Imid bees” value turned out to be 9.1 times and the “probability of exhibiting a conditioned PER after 24 h relative to Control bees” value is listed as “significantly lower”. Further, in data set [1], the “memory retention, proportion difference relative to Control bees (Adjusted Wald test)” value is 0.49; the “latency of response during learning acquisition relative to Control bees” value is given as “not significantly different from Control”; the “learning scores relative to Control bees” value is reported as “significantly lower”. Besides, in data set [1] (retention test 24 h after training), the “bees exhibiting a conditioned PER after 24 h” value is 20%. For the same compound, in the data set on Drosophila melanogaster (0.1 μM imid in 5% sugar-water for 22 h, flies crossing 5 cm threshold within 6 seconds), the “motor performance relative to flies in the control group” value is “lower performance”. The “motor performance relative to flies prophylactically receiving 0.1 μM rutin” value with Drosophila melanogaster (comparator rutin 0.1 μM then imid) was “significantly lower”. The “motor performance relative to flies prophylactically receiving 1 NM rutin” value in the data set on Drosophila melanogaster (comparator rutin 1 μM then imid) is on record as “significantly lower”. Moreover, the “motor performance relative to flies prophylactically receiving 10 μM rutin” value with Drosophila melanogaster (comparator rutin 10 μM then imid) is reported as “significantly lower”.
`C[C@@H]1O[C@@H](OC[C@H]2O[C@@H](Oc3c(-c4ccc(O)c(O)c4)oc4cc(O)cc(O)c4c3=O)[C@H](O)[C@@H](O)[C@@H]2O)[C@H](O)[C@H](O)[C@H]1O` [Rutin]: in data set [1], the “memory retention, proportion difference relative to Control bees (Adjusted Wald test)” value was −0.14; the “latency of response during learning acquisition relative to Control bees” value is given as “not significantly different from Control”; the “learning scores relative to Control bees” value was “significantly higher learning scores”. Moreover, the “learning scores relative to bees in the Imid group” value in data set [1] (honey bees prophylactically fed flavonoid for three days, then imidacloprid 1.5 h before training) is “significantly higher learning scores”. Besides, the “protection against imidacloprid neuromotor impairment” value in the data set with Drosophila melanogaster (flies fed rutin 0.1, 1 or 10 μM for three days before 0.1 μM imid) is listed as “protected against this impairment”.
